Where “and” joins values, the source holds several entries; their conditions need not be identical. Equal entries are not always repeated.
What was measured:
601 DNA = test: EMSA with 601 DNA; assay type: binding; settings: for binding to 601 DNA: 147 bp 601 DNA 5 pmol, pH 7.5, 150 mM NaCl, 0.5 h on ice
Description: EMSA experiments were performed essentially as described. In brief, increasing amounts of WT or mutant CW or ATPaseCW cassette of MORC4 were incubated with 147 bp 601 DNA (5 pmol) or 50 ng of O’RangeRuler 5 bp ladder (Thermo Scientific) in a DNA-binding buffer containing 20 mM Tris-HCl (pH 7.5), 150 mM NaCl, 2.5 mM MgCl2, and 2 mM DTT for 0.5 h on ice. The reaction mixtures were loaded on 5% native polyacrylamide gels, and electrophoresis was performed in 0.2× Tris-borate-EDTA (TBE) buffer at 100 V for 1.2 h on ice. Gels were stained with SYBR Gold (Invitrogen).

MORC4 CW domain = biological target: T1, MORC4 CW domain (Homo sapiens, UniProt Q8TE76); test: Tryptophan fluorescence binding of histone H3 peptides to MORC4 CW; settings: for Kd: tryptophan fluorescence, 25 °C, pH 6.8, 100 mM NaCl, excitation 295 nm, isolated CW
T1 construct: The CW domain (aa 417–475) of MORC4 was cloned into a pGEX 6p-1 vector; GST (N, cleaved yes); made in house; host or cells: E. coli Rosetta2 (DE3) pLysS or BL21 (DE3) RIL
T1 sequence (Q8TE76 417-475): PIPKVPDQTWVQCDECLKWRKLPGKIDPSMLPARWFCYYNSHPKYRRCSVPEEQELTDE
Description: Spectra were recorded at 25 °C on a Fluoromax-3 spectrofluorometer (HORIBA). The samples containing 0.5–1 µM wild-type or mutated ATPaseCW or CW in 20 mM Tris pH 6.8, 100 mM NaCl, 2 mM DTT buffer and progressively increasing concentrations of the histone peptides were excited at 295 nm. Emission spectra were recorded between 320 and 360 nm with a 0.5 nm step size and a 0.5 s integration time and averaged over three scans. The Kd values were determined using a nonlinear least-squares analysis and the equation:1 ΔI=ΔImaxL+P+Kd−L+P+Kd^2−4PL/2P where [L] is the concentration of the histone peptide, [P] is the concentration of the protein, ΔI is the observed change of signal intensity, and ΔImax is the difference in signal intensity of the free and bound states of the protein. The Kd values were averaged over three separate experiments with the error calculated as the standard deviation between the runs.

NCP252 = test: FRET, Gal4 titration into Cy3-Cy5 labeled NCP252; assay type: binding; settings: for S1/2: mean of n = 3
Description: Histone octamers unlabeled or labeled with Cy5 at H2AK119 were prepared as previously described. NCPs were reconstituted by combining octamer with 1.25× excess DNA and performing slow salt dialysis. Free DNA was then separated from fully reconstituted NCPs by sucrose gradient purification. NCPs for fluorescence polarization assays were reconstituted from unlabeled octamer and 207 bp DNA containing the 601 Widom sequence flanked with a 30 bp linker on either side and internally labeled with Fluorescein 27 bp in from the 5′ end. Cy3-Cy5 labeled NCPs for FRET assays were reconstituted with Cy5 labeled octamer plus either 147 bp 601 Widom DNA containing a LexA transcription factor binding site at bases 8–27[34], or 252 bp DNA containing the 601 Widom sequence with a 75 bp linker at the 3′ end, a 30 bp linker at the 5’ end, and a Gal4 transcription factor binding site at bases 8–26 in the 601 Widom sequence. The 147 bp LexA-binding DNA was labeled with Cy3 on the 5′ end, and the 252 bp Gal4-binding DNA was internally labeled with Cy3 34 bp in from the 5′ end.
LexA was expressed in E. coli, separated from genomic DNA and the proteome by polyethyleneimine precipitation, and salted out with ammonium sulfate. LexA was resuspended in buffer A (20 mM potassium phosphate pH 7, 0.1 mM EDTA, 10% glycerol, 1 mM DTT) + 200 mM NaCl and purified by a linear gradient to A + 800 mM NaCl over either a cellulose phosphate or HiTrap Heparin HP column. Final LexA purification was performed on a hydroxyapatite column and dialyzed into 10 mM PIPES pH 7.0, 0.1 mM EDTA, 10% glycerol, and 200 mM NaCl for storage at −80 °C. The His-tagged DNA-binding domain (aa 1–147) of Gal4 was expressed in E. coli and purified from lysate by a linear gradient of buffer B (25 mM Tris pH 7.5, 200 mM NaCl, 0.2% Tween 20, 20 µM zinc acetate, 1 mM dithiothreitol, and 1 mM PMSF) + 10 mM imidazole to B + 200 mM imidazole over a Nickel-NTA column. Gal4 (1–147) was then further purified by a linear gradient of buffer C (25 mM Tris pH 7.5, 20 µM zinc acetate, 1 mM dithiothreitol, and 1 mM PMSF) + 200 mM NaCl to C + 800 mM NaCl over a Tosoh cation exchange column. Purified Gal4 (1–147) was then dialyzed into 10 mM HEPES pH 7.5, 200 mM NaCl, 10% glycerol, 20 µM zinc acetate, 1 mM DTT, and 1 mM PMSF for storage at −80 °C.
Cy3-Cy5 NCP FRET efficiency measurements were carried out on a Horiba Scientific Fluoromax 4. Samples were excited at 510 and 610 nm and the photoluminescence spectra were collected from 530 to 750 nm and 630 to 750 nm for donor and acceptor excitations, respectively. Each wavelength was integrated for one second, and the excitation and emission slit width were set to 5 nm with 2 nm emission wavelength steps. FRET measurements were computed through the (ratio)A method. LexA titrations were carried out in 20 mM Tris pH 7.5, 75 mM NaCl, 10% glycerol, 0.00625% Tween 20 buffer with 5 nM 147 bp Cy3-Cy5 NCPs mixed in 20 µL reaction volumes and allowed to incubate for 5 mins at 4 °C before FRET of the sample was measured. To measure changes in accessibility of the NCP147 due to MORC4 ATPaseCW binding, LexA titrations were repeated in the presence of NCP binding saturating concentrations of MORC4 ATPaseCW. Gal4 (1–147) titrations were carried out in 10 mM Tris pH 8, 130 mM NaCl, 10% glycerol, 0.0075% Tween 20 buffer with 1 nM 252 bp Cy3-Cy5 nucleosomes mixed in 60 µL reaction volumes and allowed to incubate for 10 mins at room temperature before FRET of the sample was measured. […]

## Nc1ncnc2c1ncn2[C@@H]1O[C@H](COP(=O)(O)OP(=O)(O)NP(=O)(O)O)[C@@H](O)[C@H]1O [AMPPNP, adenylyl-imidodiphosphate, reference compound]
601 DNA; added to ATPaseCW
  effect on binding of ATPaseCW to 601 DNA: increases binding to 601 DNA

## C[C@H](N)C(=O)N[C@@H](CCCNC(=N)N)C(=O)N[C@H](C(=O)N[C@@H](CCCC[N+](C)(C)C)C(=O)N[C@@H](CCC(N)=O)C(=O)N[C@H](C(=O)N[C@@H](C)C(=O)N[C@@H](CCCNC(=N)N)C(=O)N[C@@H](CCCCN)C(=O)N[C@@H](CO)C(=O)N[C@H](C(=O)NCC(=O)O)[C@@H](C)O)[C@@H](C)O)[C@@H](C)O [H3K4me3]
MORC4 CW domain; mean of n = 3
  Kd: 112 nM

## C[C@H](N)C(=O)N[C@@H](CCCNC(=N)N)C(=O)N[C@H](C(=O)N[C@@H](CCCCN)C(=O)N[C@@H](CCC(N)=O)C(=O)N[C@H](C(=O)N[C@@H](C)C(=O)N[C@@H](CCCNC(=N)N)C(=O)N[C@@H](CCCCN)C(=O)N[C@@H](CO)C(=O)N[C@H](C(=O)NCC(=O)O)[C@@H](C)O)[C@@H](C)O)[C@@H](C)O [H3]
MORC4 CW domain; mean ± S.D. of n = 3
  Kd: 2660 nM

## CW: CW domain (aa 417–475) of MORC4 (PIPKVPDQTWVQCDECLKWRKLPGKIDPSMLPARWFCYYNSHPKYRRCSVPEEQELTDE; left off: GST, end not stated, cleaved)
MORC4 CW domain; MORC4 CW vs other H3K4me3 readers (compared with ref [21],[22])
  higher binding affinity to H3K4me3 than other readers: 7–10 fold
601 DNA
  binding to 601 DNA: indicating the direct interaction

## CWKRR: triple mutant of the MORC4 CW domain, K460A/R462A/R463A (PIPKVPDQTWVQCDECLKWRKLPGKIDPSMLPARWFCYYNSHPAYAACSVPEEQELTDE; left off: GST, end not stated, cleaved)
601 DNA
  binding to 601 DNA: did not observe the 601 DNA band shift even at the DNA to CWKRR molar ratio of 1 to 200

## Gal4: DNA-binding domain (aa 1–147) of transcription factor Gal4
NCP252; FRET efficiency reduced by 50%, without MORC4, 1 nM NCP252, pH 8, 130 mM NaCl, room temperature, 10 min
  S1/2: 20 ± 4 nM and 20 nM
NCP252; MORC4 ATPaseCW with ATP vs no MORC4
  decrease in ability to bind NCP252: ~ 5 fold
NCP252; MORC4 ATPaseCW without ATP vs no MORC4
  decrease in ability to bind NCP252: 2 fold
NCP252; in presence of MORC4 ATPaseCW with 0.3 mM ATP
  S1/2: 100 ± 7 nM and 100 nM
NCP252; in presence of MORC4 ATPaseCW, without ATP
  S1/2: 40 ± 5 nM and 40 nM

— article PMC7596504, “Molecular mechanism of the MORC4 ATPase activation” (Nature Communications, 2020)
